Measured values reported in patent publication US20200277268A1, “PENTAFLUOROPHENYL SULFONAMIDE COMPOUNDS, COMPOSITIONS AND USES THEREOF” (DALRIADA THERAPEUTICS INC., priority 2017, published 2020).

Assays:
Format in all cases: cell-based
MV4-11 = test: CellTiter-Blue cell viability, MV4-11; details: for IC50: Homo sapiens, MV4-11, AML cell line, 72 hours; for potency relative to parent I-1 analogue: cell viability, Table 1; for activity in AML cells: AML cells (MV4-11 and MOLM13)
Description: (§1) The anti-cancer efficacy of exemplary compounds of the application were assessed in vitro against different cancer cell lines. Cell viability was examined following treatment at various concentrations of inhibitor (0.097656-50 μM) using a CellTiter-Blue® cell viability assay. 1×10^4 cells/well were plated in 96-well assay plates in culture medium. All cells were grown in DMEM, IMDM and RPMI-1640 supplemented with 10% fetal bovine serum (FBS). In some instances, FBS was removed for periods ranging from 16-24 hours, and re-introduced with test compound addition. After 24 hrs, test compounds and vehicle controls were added to appropriate wells such that the final volume was 100 μl in each well. The cells were cultured for the desired test exposure period (72 hours) at 37° C. and 5% CO2. The assay plates were removed from 3° C. incubator and 20 μl/well of CellTiter-Blue® Reagent was added. The plates were incubated using standard cell culture conditions for 1-4 hours. Afterwards, the plates were shaken for 10 seconds and florescence was recorded at 560/590 nm using a Cytation 3 spectrophotometer. IC50 values were determined using non-linear regression analysis with GraphPad Prism 6.0 (GraphPad Software Inc.).

MOLM13 = test: CellTiter-Blue cell viability, MOLM13; details: Homo sapiens, MOLM-13; AML cell line, 72 hours
Description: as §1

[1] = test system: primary human fibroblast cells (PHF); test: CellTiter-Blue cell viability, PHF; details: non-cancerous, 72 hours
Description: as §1

[2] = test system: healthy human lung cells (MRC9); test: CellTiter-Blue cell viability, MRC9; details: non-cancerous, 72 hours
Description: as §1

## O=S(=O)(c1c(F)c(F)c(F)c(F)c1F)N(Cc1ccccn1)C1CC1 [Compound I-32, N-cyclopropyl-2,3,4,5,6-pentafluoro-N-(pyridin-2-ylmethyl)benzenesulfonamide]
MV4-11
  IC50: 1.5 µM
MOLM13
  IC50: 1.3 µM

## O=C(O)c1ccc(CN(C2CC2)S(=O)(=O)c2c(F)c(F)c(F)c(F)c2F)cc1 [Compound I-26, 4-(((N-cyclopropyl-2,3,4,5,6-pentafluorophenyl)sulfonamido)methyl)benzoic acid]
MV4-11
  IC50: 1.2 µM
MOLM13
  IC50: 1.9 µM
[1]
  IC50: 6.5 µM

## Nc1ccc(-c2ccccc2CN(C2CC2)S(=O)(=O)c2c(F)c(F)c(F)c(F)c2F)cc1 [Compound I-38, N-((4′-amino-[1,1′-biphenyl]-2-yl)methyl)-N-cyclopropyl-2,3,4,5,6-pentafluorobenzenesulfonamide]
MV4-11
  IC50: 1.43 µM
MOLM13
  IC50: 8.51 µM
[2]
  IC50: 13.1 µM

## O=S(=O)(c1c(F)c(F)c(F)c(F)c1F)N(Cc1ccccc1F)C1CCC1 [Compound I-45, N-cyclobutyl-2,3,4,5,6-pentafluoro-N-(2-fluorobenzyl)benzenesulfonamide]
MV4-11
  IC50: 2.27 µM
MOLM13
  IC50: 3.9 µM
[2]
  IC50: 14.2 µM

## O=S(=O)(c1c(F)c(F)c(F)c(F)c1F)N(Cc1ccc(F)cc1)C1CCOC1 (stereo not shown) [Compound I-51, 2,3,4,5,6-pentafluoro-N-(4-fluorobenzyl)-N-(tetrahydrofuran-3-yl)benzenesulfonamide]
MV4-11
  IC50: 4.8 µM
MOLM13
  IC50: 3.37 µM

## O=S(=O)(Nc1ccc(F)cc1)c1c(F)c(F)c(F)c(F)c1F [Comparative Example 5, 2,3,4,5,6-pentafluoro-N-(4-fluorophenyl)benzenesulfonamide, reference compound]
MV4-11
  IC50: 4.4 µM
  potency relative to parent I-1 analogue: less potent
MOLM13
  IC50: 17.6 µM

## O=S(=O)(c1c(F)c(F)c(F)c(F)c1F)N(Cc1ccoc1)C1CC1 [Compound I-33]
MV4-11
  IC50: 3.55 µM
MOLM13
  IC50: 3.86 µM
[2]
  IC50: 22.1 µM

## COC(=O)c1ccc(CN(C2CC2)S(=O)(=O)c2c(F)c(F)c(F)c(F)c2F)cc1 [Compound I-27, Methyl 4-(((N-cyclopropyl-2,3,4,5,6-pentafluorophenyl)sulfonamido)methyl)benzoate]
MV4-11
  IC50: 2 µM
MOLM13
  IC50: 0.9 µM

## CN(Cc1ccc(F)cc1)S(=O)(=O)c1c(F)c(F)c(F)c(F)c1F [Compound I-58, 2,3,4,5,6-pentafluoro-N-(4-fluorobenzyl)-N-methylbenzenesulfonamide]
MV4-11
  IC50: 0.44 µM
MOLM13
  IC50: 3.1 µM

## O=S(=O)(c1ccccc1)N(Cc1ccc(F)cc1)C1CC1 [Comparative Example 2, N-cyclopropyl-N-(4-fluorobenzyl)benzenesulfonamide, reference compound]
MV4-11
  activity in AML cells: inactive
  IC50: ≥ 25 µM
MOLM13
  IC50: ≥ 25 µM

## O=S(=O)(NC1(c2ccccc2)CC1)c1c(F)c(F)c(F)c(F)c1F [Comparative Example 7, 2,3,4,5,6-pentafluoro-N-(1-phenylcyclopropyl)benzenesulfonamide, reference compound]
MV4-11
  IC50: 31 µM

## O=S(=O)(NCc1ccc(F)cc1)c1c(F)c(F)c(F)c(F)c1F [Comparative Example 4, 2,3,4,5,6-pentafluoro-N-(4-fluorobenzyl)benzenesulfonamide, reference compound]
MV4-11
  IC50: 3.1 µM
  potency relative to parent I-1 analogue: less potent
MOLM13
  IC50: 4 µM
[2]
  IC50: 16.8 µM

## Nc1cccc(-c2ccc(CN(C3CC3)S(=O)(=O)c3c(F)c(F)c(F)c(F)c3F)cc2)c1 [Compound I-39, N-((3′-amino-[1,1′-biphenyl]-4-yl)methyl)-N-cyclopropyl-2,3,4,5,6-pentafluorobenzenesulfonamide]
MV4-11
  IC50: 1.52 µM
MOLM13
  IC50: 14.9 µM
[2]
  IC50: 15.7 µM

## O=S(=O)(c1c(F)c(F)c(F)c(F)c1F)N(Cc1ccc(F)cc1)C1CCCC1 [Compound I-5, N-cyclopentyl-2,3,4,5,6-pentafluoro-N-(4-fluorobenzyl)benzenesulfonamide]
MV4-11
  IC50: 0.7 µM
MOLM13
  IC50: 2 µM

## COc1cc(CN(C2CC2)S(=O)(=O)c2c(F)c(F)c(F)c(F)c2F)cc(OC)c1 [Compound I-22, N-cyclopropyl-N-(3,5-dimethoxybenzyl)-2,3,4,5,6-pentafluorobenzenesulfonamide]
MV4-11
  IC50: 4.7 µM
MOLM13
  IC50: 4.5 µM

## O=S(=O)(c1c(F)c(F)c(F)c(F)c1F)N(Cc1ccccc1)C1CC1 [Compound I-6, N-benzyl-N-cyclopropyl-2,3,4,5,6-pentafluorobenzenesulfonamide]
MV4-11
  IC50: 1.3 µM
MOLM13
  IC50: 1.3 µM
[2]
  IC50: 17.5 µM

## COc1ccc(CN(C2CC2)S(=O)(=O)c2c(F)c(F)c(F)c(F)c2F)cc1F [Compound I-17, N-cyclopropyl-2,3,4,5,6-pentafluoro-N-(3-fluoro-4-methoxybenzyl)benzenesulfonamide]
MV4-11
  IC50: 0.79 µM
MOLM13
  IC50: 0.63 µM
[2]
  IC50: 16.2 µM

## O=S(=O)(NC1CC1)c1c(F)c(F)c(F)c(F)c1F [Comparative Example 6, N-cyclopropyl-2,3,4,5,6-pentafluorobenzenesulfonamide, reference compound]
MV4-11
  IC50: 6.4 µM
MOLM13
  IC50: 7 µM
[2]
  IC50: 19.1 µM

## O=S(=O)(c1c(F)c(F)c(F)c(F)c1F)N(CC#Cc1ccccc1)C1CC1 [Compound I-31, N-cyclopropyl-2,3,4,5,6-pentafluoro-N-(3-phenylprop-2-yn-1-yl)benzenesulfonamide]
MV4-11
  IC50: 1.53 µM
MOLM13
  IC50: 5.2 µM
[2]
  IC50: 15.5 µM

## O=S(=O)(c1c(F)c(F)c(F)c(F)c1F)N(Cc1cccc(N2CCOCC2)c1)C1CC1 [Compound I-34, N-cyclopropyl-2,3,4,5,6-pentafluoro-N-(3-morpholinobenzyl)benzenesulfonamide]
MV4-11
  IC50: 0.96 µM
MOLM13
  IC50: 7.95 µM
[2]
  IC50: 14.1 µM

## O=S(=O)(c1c(F)c(F)cc(F)c1F)N(Cc1ccc(F)cc1)C1CC1 [Comparative Example 8, N-cyclopropyl-2,3,5,6-tetrafluoro-N-(4-fluorobenzyl)benzenesulfonamide, reference compound]
MV4-11
  activity in AML cells: inactive
  IC50: > 12.5 µM
MOLM13
  IC50: > 25 µM

## O=S(=O)(c1c(F)c(F)c(F)c(F)c1F)N(Cc1ccc(F)cc1F)C1CC1 [Compound I-35, N-cyclopropyl-N-(2,4-difluorobenzyl)-2,3,4,5,6-pentafluorobenzenesulfonamide]
MV4-11
  IC50: 1.7 µM
MOLM13
  IC50: 3.96 µM
[2]
  IC50: 13.5 µM

## O=S(=O)(c1c(F)c(F)c(F)c(F)c1F)N(Cc1cccc(F)c1)C1CC1 [Compound I-11, N-cyclopropyl-2,3,4,5,6-pentafluoro-N-(3-fluorobenzyl)benzenesulfonamide]
MV4-11
  IC50: 1.7 µM
MOLM13
  IC50: 3.37 µM
[2]
  IC50: 9 µM

## O=S(=O)(c1c(F)c(F)c(F)c(F)c1F)N(Cc1ccncc1)Cc1ccc(F)cc1 [Compound I-52]
MV4-11
  IC50: 4.1 µM
MOLM13
  IC50: 3.5 µM

## CC(=O)N(Cc1ccc(F)cc1)S(=O)(=O)c1c(F)c(F)c(F)c(F)c1F [Compound I-4, N-(4-fluorobenzyl)-N-((perfluorophenyl)sulfonyl)acetamide]
MV4-11
  IC50: 2.09 µM
MOLM13
  IC50: 5.1 µM
[2]
  IC50: 25 µM

## O=S(=O)(c1c(F)c(F)c(F)c(F)c1F)N(Cc1ccncc1)C1CC1 [Compound I-9, N-cyclopropyl-2,3,4,5,6-pentafluoro-N-(pyridin-4-ylmethyl)benzenesulfonamide]
MV4-11
  IC50: 1.83 µM
MOLM13
  IC50: 1.62 µM

## O=S(=O)(c1c(F)c(F)c(F)c(F)c1F)N(C1CC1)C(c1ccc(F)cc1)C(F)(F)F (stereo not shown) [Compound I-10, N-cyclopropyl-2,3,4,5,6-pentafluoro-N-(2,2,2-trifluoro-1-(4-fluorophenyl)ethyl)benzenesulfonamide]
MV4-11
  IC50: 0.974 µM
MOLM13
  IC50: 9.83 µM

## COc1cc(CN(C2CC2)S(=O)(=O)c2c(F)c(F)c(F)c(F)c2F)cc(OC)c1O [Compound I-29, N-cyclopropyl-2,3,4,5,6-pentafluoro-N-(4-hydroxy-3,5-dimethoxybenzyl)benzenesulfonamide]
MV4-11
  IC50: 1.94 µM
MOLM13
  IC50: 3.96 µM
[2]
  IC50: 9.7 µM

## CS(=O)(=O)c1ccc(CN(C2CC2)S(=O)(=O)c2c(F)c(F)c(F)c(F)c2F)cc1 [Compound I-24, N-cyclopropyl-2,3,4,5,6-pentafluoro-N-(4(methylsulfonyl)benzyl)benzenesulfonamide]
MV4-11
  IC50: 1.15 µM
MOLM13
  IC50: 1.35 µM

## O=C(OCc1ccccc1)c1ccc(CN(C2CC2)S(=O)(=O)c2c(F)c(F)c(F)c(F)c2F)cc1 [Compound I-41, Benzyl 4-(((N-cyclopropyl-2,3,4,5,6-pentafluorophenyl)sulfonamido)methyl)benzoate]
MV4-11
  IC50: 1 µM
MOLM13
  IC50: 3.2 µM

## O=S(=O)(c1c(F)c(F)c(F)c(F)c1F)N(Cc1ccc(F)cc1)c1ccccc1 [Compound I-53, 2,3,4,5,6-pentafluoro-N-(4-fluorobenzyl)-N-phenylbenzenesulfonamide]
MV4-11
  IC50: 1.4 µM
MOLM13
  IC50: 1.5 µM

## CCOC(=O)C1(N(Cc2ccc(F)cn2)S(=O)(=O)c2c(F)c(F)c(F)c(F)c2F)CC1 [Compound I-18, Ethyl 1-((2,3,4,5,6-pentafluoro-N-((5-fluoropyridin-2-yl)methyl)phenyl)sulfonamido)cyclopropane-1-carboxylate]
MV4-11
  IC50: 2.8 µM
MOLM13
  IC50: 6.2 µM

## O=S(=O)(c1c(F)c(F)c(F)c(F)c1F)N(Cc1ccccc1)Cc1ccc(F)cc1 [Compound I-3]
MV4-11
  IC50: 0.59 µM
MOLM13
  IC50: 9.3 µM
[2]
  IC50: 14.4 µM
